From patent publication US9468693B2, “Labeled molecular imaging agents and methods of use” (GENERAL ELECTRIC COMPANY, priority 2014, dated 2016)

Molecular target: T1, oxidative stress transporter (Homo sapiens, UniProt Q9UPY5)
T1 sequence (Q9UPY5 1-501): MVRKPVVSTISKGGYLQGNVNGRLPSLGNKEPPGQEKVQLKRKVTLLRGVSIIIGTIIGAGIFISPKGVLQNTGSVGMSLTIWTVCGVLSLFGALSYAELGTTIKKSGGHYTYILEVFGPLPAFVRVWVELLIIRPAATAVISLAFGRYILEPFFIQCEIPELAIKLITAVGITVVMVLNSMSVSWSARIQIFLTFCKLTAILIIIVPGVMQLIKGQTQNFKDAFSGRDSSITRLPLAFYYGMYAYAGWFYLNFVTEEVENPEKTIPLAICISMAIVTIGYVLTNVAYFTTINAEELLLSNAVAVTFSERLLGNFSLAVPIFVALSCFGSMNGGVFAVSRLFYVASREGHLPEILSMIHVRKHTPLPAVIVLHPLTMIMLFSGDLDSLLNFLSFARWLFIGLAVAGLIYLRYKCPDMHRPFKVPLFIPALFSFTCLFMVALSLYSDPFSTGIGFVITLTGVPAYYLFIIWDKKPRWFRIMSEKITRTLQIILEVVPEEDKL
T1 sequence (P08195 1-529 partner): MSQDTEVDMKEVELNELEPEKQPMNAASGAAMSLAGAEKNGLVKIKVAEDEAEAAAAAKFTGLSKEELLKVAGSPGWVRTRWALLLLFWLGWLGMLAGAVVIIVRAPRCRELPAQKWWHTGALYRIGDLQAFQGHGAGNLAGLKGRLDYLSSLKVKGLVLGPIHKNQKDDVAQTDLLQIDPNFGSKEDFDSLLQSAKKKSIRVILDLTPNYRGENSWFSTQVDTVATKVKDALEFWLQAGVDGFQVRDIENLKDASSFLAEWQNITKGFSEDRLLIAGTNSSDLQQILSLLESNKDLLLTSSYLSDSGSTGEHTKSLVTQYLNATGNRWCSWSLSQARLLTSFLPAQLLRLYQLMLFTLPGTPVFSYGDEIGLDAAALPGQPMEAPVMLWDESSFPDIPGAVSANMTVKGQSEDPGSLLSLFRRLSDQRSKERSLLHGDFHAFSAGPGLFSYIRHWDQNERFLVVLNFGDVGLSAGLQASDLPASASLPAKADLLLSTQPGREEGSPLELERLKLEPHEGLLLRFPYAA
Assay: not given
Details: as reported in U.S. patent application Ser. No. 13/234,210; cited from earlier work

Structure (SMILES) | uptake via the oxidative stress transporter
N[C@@H](CCCCCC(=O)O)C(=O)O [aminosuberic acid] | good uptake

Molecular target: T2, cystine/glutamate transporter (Homo sapiens, UniProt Q9UPY5)
T2 construct: endogenous in cells; host or cells: SKOV3 cells treated with 100 uM DEM (the paragraph also says 'DEM treated EL4 cells')
T2 sequence (Q9UPY5 1-501): T1 sequence (Q9UPY5 1-501)
T2 sequence (P08195 2-529 partner): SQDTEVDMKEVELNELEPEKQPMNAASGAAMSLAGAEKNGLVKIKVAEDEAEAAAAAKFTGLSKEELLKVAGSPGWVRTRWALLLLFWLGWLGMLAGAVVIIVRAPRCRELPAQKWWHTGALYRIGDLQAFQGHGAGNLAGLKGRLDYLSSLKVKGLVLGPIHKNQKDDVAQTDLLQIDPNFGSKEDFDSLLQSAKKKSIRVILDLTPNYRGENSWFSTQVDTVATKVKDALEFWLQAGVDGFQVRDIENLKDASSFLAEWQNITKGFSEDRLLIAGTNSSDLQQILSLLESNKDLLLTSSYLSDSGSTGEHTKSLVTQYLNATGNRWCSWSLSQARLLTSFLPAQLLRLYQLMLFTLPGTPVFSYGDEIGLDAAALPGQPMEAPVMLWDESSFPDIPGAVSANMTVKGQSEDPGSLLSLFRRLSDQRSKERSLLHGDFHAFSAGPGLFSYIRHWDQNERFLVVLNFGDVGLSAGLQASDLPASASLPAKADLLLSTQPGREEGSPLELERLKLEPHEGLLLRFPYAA
Assay: inhibition of 3H-L-Glu uptake in DEM treated cells
Type: cell-based
Details: 0.5 h; 1 mM agent; 30 minutes uptake at room temperature; cells pretreated with 100 μM DEM overnight; triplicate; lower = inhibition of the transporter; read-out: % of contro1 3H-Glu uptake
Procedure: Following are non-limiting examples used to illustrate various embodiments of the imaging agents and methods of use. As such Table 1 provides examples of the non-labelled analog of the final product. Also provided are measurements of inhibition response of ^3H-L-GLU (control) uptake in DEM treated EL4 cells. As such 96 well plate were seeded with 100,000 SKOV3 cells/well in complete growth media (McCoy's+10% Fetal Bovine Serum(FBS)) and incubated overnight at 37° C. The media was changed to 100 μM DEM and again incubated overnight at 37° C. Wash 1× with Hank's Balanced Salt Solution (HBSS) Room Temperature and assayed 50 μl of each agent (Table 1) in triplicate by incubating for 30 minutes (uptake) at room temperature. It was then washed twice with HBSS and 200 μl MicroScint20 added for counting. The protocol used 200 uCi 3H-Glu per well. The mix and agent and ^3H-Glu provided a final concentration of 200 uCi and 1 mM agent. […] As such lower response is indicative of inhibition of the transporter. As such numbers below approximately 30% is equivalent to 70% inhibition and are considered good candidates for pharmaceutical agents.

Structure (SMILES) | remaining activity at 1000 µM
N[C@@H](CCC(=O)N1C[C@@H](Oc2ccccc2)C[C@H]1C(=O)O)C(=O)O [1j] | 33%
N[C@@H](CCC(=O)N1C[C@@H](c2ccccc2)C[C@H]1C(=O)O)C(=O)O [1i] | 46.2%
N[C@@H](CCC(=O)N1C[C@H](Oc2ccccc2)C[C@H]1C(=O)O)C(=O)O [1l] | 36.6%
N[C@@H](CCC(=O)N1C[C@H](F)C[C@H]1C(=O)O)C(=O)O [1d] | 51.8%
N[C@@H](CCC(=O)N1C[C@@H](O)C[C@@H]1C(=O)O)C(=O)O [1e] | 74%
N[C@@H](CCC(=O)N1C[C@H](O)C[C@H]1C(=O)O)C(=O)O [1c] | 73.6%
N[C@@H](CCC(=O)N1C[C@@H](O)C[C@H]1C(=O)O)C(=O)O [1f] | 30.8%
N[C@@H](CCC(=O)N1CCC[C@H]1C(=O)O)C(=O)O [1a] | 46.3%
N[C@@H](CCC(=O)N1CCC[C@@H]1C(=O)O)C(=O)O [1b] | 84%
N[C@@H](CCC(=O)N1C[C@H](O)C[C@@H]1C(=O)O)C(=O)O [1g] | 94.7%
N[C@@H](CCC(=O)N1C[C@H](Cc2ccccc2)C[C@H]1C(=O)O)C(=O)O [1k] | 30.9%
N[C@@H](CCC(=O)N1C[C@H](c2ccccc2)C[C@H]1C(=O)O)C(=O)O [1h] | 52.3%

The next lines start with the values.

remaining activity at 1000 µM | Structure (SMILES)
50% | N[C@@H](CCC(=O)N1C[C@H](OCc2ccccc2)CC1C(=O)O)C(=O)O (some centres unmarked) [1p]
26.2% | N[C@@H](CCC(=O)N1C[C@@H](OCc2ccccc2)C[C@H]1C(=O)O)C(=O)O [1n]
14.9% | N[C@@H](CCC(=O)N1C[C@H](OCc2ccccc2)C[C@H]1C(=O)O)C(=O)O [1m]
14.5% | CCOc1cccc(CO[C@@H]2C[C@@H](C(=O)O)N(C(=O)CC[C@H](N)C(=O)O)C2)c1 [1q]
43.2% | N[C@@H](CCC(=O)N1C[C@@H](OCc2ccccc2)CC1C(=O)O)C(=O)O (some centres unmarked) [1o]
10.1% | N[C@@H](CCC(=O)N1C[C@H](OCc2ccc(COCCF)cc2)C[C@H]1C(=O)O)C(=O)O [1r]

Same assay, conditions: comparison of the 2S,4R-hydroxyproline scaffold with the other stereoisomers

uptake compared to structures 1n, 1o, or 1p (hydroxyproline stereoisomers) | Structure (SMILES)
improved uptake | N[C@@H](CCC(=O)N1C[C@H](OCc2ccccc2)C[C@H]1C(=O)O)C(=O)O [1m]
